Source: patent publication US7915259B2, “Diazabicyclononene derivatives and use thereof” (priority 2005, dated 2011)

Assays:
recombinant human renin = molecular target: T1, recombinant human renin (Homo sapiens, UniProt P00797); experiment: Primary renin inhibition assay: IC50 in buffer, 384 well MTP (Ang I EIA readout); assay type: biochemical
T1 sequence (P00797 67-406): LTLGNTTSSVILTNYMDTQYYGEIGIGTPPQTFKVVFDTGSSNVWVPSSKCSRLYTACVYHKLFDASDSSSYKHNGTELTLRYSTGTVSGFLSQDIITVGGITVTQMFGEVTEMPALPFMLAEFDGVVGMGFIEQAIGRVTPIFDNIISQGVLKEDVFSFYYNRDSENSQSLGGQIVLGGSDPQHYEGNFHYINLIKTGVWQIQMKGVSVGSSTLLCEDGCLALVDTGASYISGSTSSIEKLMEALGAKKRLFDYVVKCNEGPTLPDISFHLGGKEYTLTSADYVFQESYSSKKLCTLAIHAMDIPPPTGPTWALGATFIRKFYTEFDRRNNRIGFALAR
Protocol: 1. Enzyme Immuno Assay (EIA) to Estimate Ang I Accumulation and Renin Inhibition
1.1 Preparation of Ang I-BSA Conjugate
1.3 mg (1 μmol) of Ang I [1-10 (Bachem, H-1680)] and 17 mg (0.26 μmol) of BSA (Fluka, 05475) were dissolved in 4 mL of 0.1M phosphate buffer, pH 7.4, after which 2 mL of a 1:100 dilution of glutaraldehyde in H2O (Sigma G-5882) was added dropwise. The mixture was incubated overnight at 4° C., then dialyzed against 2 liters of 0.9% NaCl, twice for 4 h at rt, followed by dialysis against 2 liters of PBS 1× overnight at rt. The solution was then filtered with a Syringe filter, 0.45 μm (Nalgene, Cat. No. 194-2545). The conjugate can be stored in polypropylene tubes in 0.05% sodium azide at 4° C. for at least 12 months.
1.2 Preparation of BSA-Ang I Coated MTP […]
The renin assay was adapted from an assay described before (Fischli W. et al., Hypertension, 1991, 18:22-31) and consists of two steps: in the first step, recombinant human renin is incubated with its substrate (commercial human tetradecapeptide renin substrate) to create the product Angiotensin I (Ang I). In the second step, the accumulated Ang I is measured by an immunological assay (enzyme immuno assay, EIA). […]

[1] = test system: double transgenic rats with human renin and human angiotensinogen; experiment: Hemodynamic measurements (telemetry method) in hypertensive double transgenic rats; assay type: in vivo, rat; conditions: female double transgenic rats
Protocol: Hemodynamic Measurements (Telemetry Method)
Animals—Female double transgenic rats with human renin and human angiotensinogen were purchased from RCC Ltd, Füllingsdorf, Switzerland. All animals were maintained under identical conditions and had free access to normal pelleted rat chow and water. Rats were initially treated with enalapril (1 mg/kg/day) during 2 months. After approximately two weeks following cessation of enalapril treatment the double transgenic rats become hypertensive and reach mean arterial blood pressures in the range of 160-170 mmHg.
Transmitter implantation—The rats were anaesthetised with a mixture of 90 mg/kg Ketamin-HCl (Ketavet, Parke-Davis, Berlin FRG) and 10 mg/kg xylazin (Rompun, Bayer, Leverkusen, FRG) i.p. The pressure transmitter was implanted under aseptic conditions into the peritoneal cavity with the sensing catheter placed in the descending aorta below the renal arteries pointing upstream. The transmitter was sutured to the abdominal musculature and the skin closed.
Telemetry-System—Telemetry units were obtained from Data Sciences (St. Paul, Minn.). […] The tip of the catheter was filled with a viscous gel that prevents blood reflux and was coated with an antithrombogenic film to inhibit thrombus formation. The implants (length=2.5 cm, diameter=1.2 cm) weighted 9 g and have a typical battery life of 6 months. A receiver platform (RPC-1, Data Sciences) connected the radio signal to digitized input that was sent to a dedicated personal computer (Compaq, deskpro). Arterial pressures were calibrated by using an input from an ambient-pressure reference (APR-1, Data Sciences). Systolic, mean and diastolic blood pressure was expressed in millimeter of mercury (mmHg).
[…] The effect of the test substance is expressed as maximal decrease of mean arterial pressure (MAP) in the treated group versus the control group.

Cc1cc(Cl)c(OCCOc2ccc(C3=C(C(=O)N(Cc4cccc(C)c4C)C4CC4)[C@H]4CNC[C@@H](C3)N4)cc2)c(Cl)c1 [Compound (I′), (1R,5S)-7-{4-[2-(2,6-dichloro-4-methylphenoxy)ethoxy]-phenyl}-3,9-diazabicyclo[3.3.1]non-6-ene-6-carboxylic acid cyclopropyl-(2,3-dimethylbenzyl)amide]
IC50 (recombinant human renin): 0.3 nM
activity in the animal model ([1]; oral): active
blood pressure decrease (maximal decrease of mean arterial pressure vs control group) ([1]; single oral dose of 3 mg/kg): 17 mmHg
blood pressure decrease (maximal decrease of mean arterial pressure vs control group) ([1]; single oral dose of 10 mg/kg): 30 mmHg
